Test results published in paper PMC3541164, “Cytotoxic and potent CYP1 inhibitors from the marine algae Cymopolia barbata” (Organic and Medicinal Chemistry Letters, 2012).
Entries after “also recorded” stand apart in the source; their conditions may differ. Where two headings read alike, the source gives them in different places.

Assays:
CYP1B1 [1] = molecular target: T1, CYP1B1 (Homo sapiens, UniProt Q16678); experiment: Fluorometric CYP inhibition assay, ERes dealkylation; assay type: biochemical; details: for nature of inhibition of CYP1B1 activity: Eadie-Hofstee analysis, reversible; for Ki: apparent Ki, ERes dealkylation
T1 sequence (Q16678 1-543): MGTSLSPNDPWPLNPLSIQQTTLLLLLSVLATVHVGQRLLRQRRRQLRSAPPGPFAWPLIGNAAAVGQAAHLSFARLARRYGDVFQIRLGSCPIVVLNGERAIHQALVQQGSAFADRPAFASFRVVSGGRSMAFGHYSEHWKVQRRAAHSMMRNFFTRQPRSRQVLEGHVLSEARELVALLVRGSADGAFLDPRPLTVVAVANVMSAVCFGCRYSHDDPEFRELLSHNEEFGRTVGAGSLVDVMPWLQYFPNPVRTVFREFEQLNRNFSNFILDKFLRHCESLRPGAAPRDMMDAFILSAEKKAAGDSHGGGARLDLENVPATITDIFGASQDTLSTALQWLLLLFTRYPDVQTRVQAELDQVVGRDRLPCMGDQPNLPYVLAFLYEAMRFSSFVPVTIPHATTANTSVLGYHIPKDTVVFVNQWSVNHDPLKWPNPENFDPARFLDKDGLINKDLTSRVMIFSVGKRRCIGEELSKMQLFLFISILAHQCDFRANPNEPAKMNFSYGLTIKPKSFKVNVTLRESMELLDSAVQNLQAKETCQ
Procedure: (§2) The test compounds were evaluated for their ability to inhibit the catalytic activity of human CYP1 enzymes by means of high throughput fluorometric detection assays conducted in 96-well microtitre plates as described elsewhere [16, 17]. 7-Ethoxyresorufin (ERes) was used as a substrate for detecting activity of CYP1B1 and 7-ethoxy-3-cyanocoumarin (CEC) was used as a substrate for both CYP1A1 and CYP1A2. Further, the substrates, 3-[2-(NN-diethyl-N-methylamino)ethyl]-7-methoxy-4methylcoumarin (AMMC), 7-benzyloxy-4-trifluoromethylcoumarin (BFC), and CEC were used as substrates for CYP2D6, CYP3A4, and CYP2C19, respectively. The reactions were monitored fluorometrically at 37°C, using a Varian Cary Eclipse fluorescence spectrophotometer.
(§3) IC50 and Ki values were determined by fitting the data in Sigma Plot (version 10.0) and enzyme kinetics module, using nonlinear regression analysis. The apparent Ki values were determined on the basis of visual inspection of Eadie-Hofstee and various statistics to evaluate goodness of fit, such as the size of the sum of squares of residuals, Akaike information criterion, and standard error (Enzyme kinetics module, version 1.3). The data listed represent the average values from three different determinations.
(§4) Data are expressed as mean percentage of control enzyme activity for three independent experiments.

CYP1B1 [2] = molecular target: T1, CYP1B1; details: published value for known inhibitor; cited from earlier work
CYP1A1 [3] = molecular target: T2, CYP1A1 (Homo sapiens, UniProt P04798); experiment: Fluorometric CYP inhibition assay, CEC dealkylation; assay type: biochemical; details: for IC50: recombinant CYP1A1, CEC 0.5 μM; for nature of inhibition of CYP1A1 activity: Eadie-Hofstee analysis, reversible; for Ki: apparent Ki, CEC dealkylation
T2 sequence (P04798 1-512): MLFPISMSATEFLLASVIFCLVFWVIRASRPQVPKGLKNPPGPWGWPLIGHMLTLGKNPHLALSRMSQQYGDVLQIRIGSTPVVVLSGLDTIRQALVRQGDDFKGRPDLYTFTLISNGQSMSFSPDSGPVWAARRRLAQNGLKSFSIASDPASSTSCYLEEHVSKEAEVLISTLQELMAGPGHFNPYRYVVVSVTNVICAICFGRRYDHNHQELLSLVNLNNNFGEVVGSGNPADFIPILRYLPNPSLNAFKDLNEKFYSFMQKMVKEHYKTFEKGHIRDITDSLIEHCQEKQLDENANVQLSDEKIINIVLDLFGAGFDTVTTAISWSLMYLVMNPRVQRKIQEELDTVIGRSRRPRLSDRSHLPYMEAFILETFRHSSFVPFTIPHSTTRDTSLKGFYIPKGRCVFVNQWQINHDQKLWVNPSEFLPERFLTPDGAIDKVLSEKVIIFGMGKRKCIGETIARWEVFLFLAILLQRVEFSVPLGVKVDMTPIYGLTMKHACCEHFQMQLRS
Procedure: as §2, §3, §4

CYP1A1 [4] = molecular target: T2, CYP1A1; details: published value for known inhibitor; cited from earlier work
CYP1A1 [5] = system: CYP1A1; design: method as in PMID 10188874; details: MCF-7 breast cancer cells; cited from earlier work
CYP2C19 [6] = molecular target: T3, CYP2C19 (Homo sapiens, UniProt P33261); experiment: Fluorometric CYP inhibition assay, CEC dealkylation; assay type: in vitro ADME; details: recombinant CYP2C19, CEC 25 μM
Procedure: as §2, §3, §4

CYP2C19 [7] = molecular target: T3, CYP2C19; details: read-out: published IC50 CYP2C19; published value for known inhibitor; cited from earlier work
MCF-7 cells = experiment: MTS cell viability assay, breast cancer cells; assay type: cell-based; details: breast cancer cells, 24 h exposure, MTS
Procedure: (§5) Cells were maintained at 37°C with 5% CO2 in Corning 75 cm^2 culture flasks. Cells were exposed to a given isolate or known anticancer agent for 24 h. Following the appropriate treatments, cell viability was evaluated using an MTS assay according to the manufacturer’s instructions [14]. All assays were performed at least three times and were monitored spectrophotometrically at 590 nm [15]. Cell viability was recorded as percentage relative to vehicle solvent-treated control.

CYP3A4 = CYP3A4 (Homo sapiens, UniProt P08684); experiment: Fluorometric CYP inhibition assay, BFC debenzylation; assay type: in vitro ADME
Procedure: as §2, §3, §4

CYP2D6 [8] = molecular target: T4, CYP2D6 (Homo sapiens, UniProt P10635); experiment: biochemical
Procedure: as §2, §3, §4

CYP1A2 = molecular target: T5, CYP1A2 (Homo sapiens, UniProt P05177); experiment: Fluorometric CYP inhibition assay, CEC dealkylation; assay type: biochemical; details: for IC50: recombinant CYP1A2, CEC 5 μM
T5 sequence (P05177 1-516): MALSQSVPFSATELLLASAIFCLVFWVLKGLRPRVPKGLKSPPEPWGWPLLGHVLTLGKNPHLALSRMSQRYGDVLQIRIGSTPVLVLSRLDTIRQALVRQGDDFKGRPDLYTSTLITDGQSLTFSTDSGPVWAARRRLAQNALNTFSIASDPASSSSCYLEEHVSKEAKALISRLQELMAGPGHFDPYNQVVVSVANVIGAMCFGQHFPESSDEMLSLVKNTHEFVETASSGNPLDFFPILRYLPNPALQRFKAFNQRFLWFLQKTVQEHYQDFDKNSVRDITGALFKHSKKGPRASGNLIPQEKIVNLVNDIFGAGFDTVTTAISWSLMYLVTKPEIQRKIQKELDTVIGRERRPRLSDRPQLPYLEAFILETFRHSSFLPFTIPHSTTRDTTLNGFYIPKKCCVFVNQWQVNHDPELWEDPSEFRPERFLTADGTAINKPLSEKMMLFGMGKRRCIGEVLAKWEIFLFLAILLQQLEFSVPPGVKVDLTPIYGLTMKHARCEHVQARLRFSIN
Procedure: as §2, §3, §4

CCD18 Co cells = experiment: MTS cell viability assay, normal colon cells; assay type: cell-based; details: normal colon cell line, 24 h exposure, MTS; for IC50: Homo sapiens, CCD-18Co
Procedure: (§1) Cell lines (CCD18 Co, HepG2 and MCF-7) were maintained in ATCC-formulated Eagle’s Minimum Essential Medium and HT29 was maintained in McCoy’s 5a Modified Medium supplemented with 10% fotal bovine serum (Atlas; Fort Collins, CO, USA), 10 mM HEPES solution, 100 mM L-glutamine penicillin streptomycin solution, 3 g/L glucose, and 1.5 g/L of sodium bicarbonate. Cells were maintained at 37°C with 5% CO2 in Corning 75 cm^2 culture flasks. Cells were exposed to a given isolate or known anticancer agent for 24 h. Following the appropriate treatments, cell viability was evaluated using an MTS assay according to the manufacturer’s instructions. All assays were performed at least three times and were monitored spectrophotometrically at 590 nm. Cell viability was recorded as percentage relative to vehicle solvent-treated control.

HepG2 cells = experiment: MTS cell viability assay, liver cancer cells; assay type: cell-based; details: liver cancer cells, 24 h exposure, MTS
Procedure: as §1

HT29 cells = experiment: MTS cell viability assay, colon cancer cells; assay type: cell-based; details: colon cancer cell line, 24 h exposure, MTS; for IC50: Homo sapiens, HT-29
Procedure: as §1

[9] = MTS cell viability assay, breast cancer cells; assay type: cell-based; details: human, MCF-7 breast cancer cells; at 60 μM, MCF-7; read-out: impact on cell viability
Procedure: as §5

[10] = MTS cell viability assay, normal colon cells; assay type: cell-based; details: human, CCD18 Co normal colon cells; at 60 μM, CCD18 Co; read-out: impact on cell viability
Procedure: as §1

[11] = MTS cell viability assay, liver cancer cells; assay type: cell-based; details: human, HepG2 liver cancer cells; at 60 μM, HepG2; read-out: impact on cell viability
Procedure: as §1

[12] = MTS cell viability assay, colon cancer cells; assay type: cell-based; details: human, HT29 colon cancer cells; at 60 μM, HT29; read-out: impact on cell viability
Procedure: as §1

CYP2D6 [13] = molecular target: T4, CYP2D6; experiment: in vitro; details: recombinant CYP2D6
Procedure: as §2, §3, §4

[14] = recombinant CYP1B1, ERes 0.37 μM, read-out: IC50 CYP1B1

T3 sequence (P33261 whole entry): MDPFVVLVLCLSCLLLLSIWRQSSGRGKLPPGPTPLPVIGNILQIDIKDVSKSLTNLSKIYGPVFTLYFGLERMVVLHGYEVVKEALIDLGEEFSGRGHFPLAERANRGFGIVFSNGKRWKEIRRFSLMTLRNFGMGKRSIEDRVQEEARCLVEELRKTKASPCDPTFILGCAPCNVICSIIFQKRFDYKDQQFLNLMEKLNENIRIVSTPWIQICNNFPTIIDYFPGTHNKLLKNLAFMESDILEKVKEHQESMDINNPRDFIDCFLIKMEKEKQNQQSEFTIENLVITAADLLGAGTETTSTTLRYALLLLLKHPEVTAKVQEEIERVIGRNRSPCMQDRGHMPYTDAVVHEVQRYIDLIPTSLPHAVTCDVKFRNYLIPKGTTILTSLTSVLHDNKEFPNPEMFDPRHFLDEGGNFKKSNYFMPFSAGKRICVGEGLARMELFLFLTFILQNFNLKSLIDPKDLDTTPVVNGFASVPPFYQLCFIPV
T4 sequence (P10635 whole entry): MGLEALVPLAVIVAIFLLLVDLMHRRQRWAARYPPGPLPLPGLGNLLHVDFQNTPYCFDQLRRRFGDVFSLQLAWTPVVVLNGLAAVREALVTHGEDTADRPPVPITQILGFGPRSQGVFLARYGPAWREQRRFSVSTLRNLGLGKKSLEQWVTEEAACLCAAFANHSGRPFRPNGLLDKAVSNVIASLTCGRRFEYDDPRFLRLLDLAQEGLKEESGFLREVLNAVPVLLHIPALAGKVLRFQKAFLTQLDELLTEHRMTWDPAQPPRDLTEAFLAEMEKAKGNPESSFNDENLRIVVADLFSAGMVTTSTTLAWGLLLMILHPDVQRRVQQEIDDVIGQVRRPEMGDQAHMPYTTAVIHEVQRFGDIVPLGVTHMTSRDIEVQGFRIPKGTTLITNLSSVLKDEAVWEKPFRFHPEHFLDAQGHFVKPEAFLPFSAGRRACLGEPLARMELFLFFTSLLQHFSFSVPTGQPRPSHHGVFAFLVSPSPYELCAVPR
CYP3A4, sequence (P08684 whole entry): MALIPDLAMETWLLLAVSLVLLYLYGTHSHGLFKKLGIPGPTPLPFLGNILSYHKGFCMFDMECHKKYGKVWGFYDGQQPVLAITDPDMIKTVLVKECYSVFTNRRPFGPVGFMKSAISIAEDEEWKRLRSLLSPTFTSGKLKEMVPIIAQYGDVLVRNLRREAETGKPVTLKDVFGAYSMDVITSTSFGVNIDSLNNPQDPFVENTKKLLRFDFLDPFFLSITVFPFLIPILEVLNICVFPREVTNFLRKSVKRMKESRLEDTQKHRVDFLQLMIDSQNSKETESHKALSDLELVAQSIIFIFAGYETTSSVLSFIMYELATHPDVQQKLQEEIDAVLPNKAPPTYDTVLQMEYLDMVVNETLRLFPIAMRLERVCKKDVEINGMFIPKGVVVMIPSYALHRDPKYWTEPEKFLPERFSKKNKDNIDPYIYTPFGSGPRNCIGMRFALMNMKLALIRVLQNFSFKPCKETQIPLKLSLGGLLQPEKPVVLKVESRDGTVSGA

Row | SMILES | IC50 (CYP1B1 [1]; [14]) | IC50 (CYP1A1 [3]) | IC50 (CYP2C19 [6]) | IC50 cell viability MCF-7 (MCF-7 cells) | nature of inhibition of CYP1B1 activity (CYP1B1 [1]) | Ki (CYP1B1 [1]) | nature of inhibition of CYP1A1 activity (CYP1A1 [3]) | Ki (CYP1A1 [3]) | IC50 (CCD18 Co cells) | IC50 cell viability HepG (HepG2 cells) | IC50 (HT29 cells) | also measured
1 | CC(=O)N1CCN(c2ccc(OCC3COC(Cn4ccnc4)(c4ccc(Cl)cc4Cl)O3)cc2)CC1 (centres unmarked) [ketoconazole, reference compound] | 6300 ± 1700 nM | 40 ± 10 nM |  |  |  |  |  |  |  |  |  | IC50 (CYP1B1 [2]): < 10000 nM; IC50 (CYP1A1 [4]): < 10000 nM
2 | O=c1c(O)c(-c2ccccc2)oc2cc(O)cc(O)c12 [galangin] |  |  |  |  |  |  |  |  |  |  |  | nature of inhibition of DMBA-induced CYP1A1 (CYP1A1 [5]): noncompetitive, dose-dependent
3 | CCC1(c2ccccc2)C(=O)NC(=O)N(Cc2ccccc2)C1=O (single isomer, unassigned; (-)) [(−)-N-3-Benzyl-phenobarbital, reference compound] |  |  | 300 ± 10 nM |  |  |  |  |  |  |  |  | IC50 (CYP2C19 [7]): 250 nM
4 | C/C(=C\C(=O)c1cc(O)c(Br)cc1O)CCCC(C)(C)O [PBQ2, 7-hydroxycymopolone] | 140 ± 40 nM | 930 ± 260 nM | 120 ± 60 nM | NI (no impact (<10% inhibition at 60 μM)) | partial noncompetitive inhibition | 4.7 nM | uncompetitive inhibition | 840 ± 70 nM | 55600 ± 3280 nM | NI (no impact (<10% inhibition at 60 μM)) | 19800 ± 460 nM | IC50 (CYP3A4; recombinant CYP3A4, BFC 50 μM, read-out: IC50 CYP3A4): 8310 ± 4670 nM; IC50 (CYP2D6 [8]): 2750 ± 960 nM; IC50 (CYP1A2): 10600 ± 6750 nM
5 | O=c1[nH]cc(F)c(=O)[nH]1 [Fluorouracil, fluorouracil, reference compound] |  |  |  |  |  |  |  |  | 55500 ± 3710 nM |  | 23500 ± 1120 nM | 
6 | CC(C)(O)CCCC1(C)CC(=O)c2cc(O)c(Br)cc2O1 (centres unmarked) [PBQ1, 7-Hydroxycymopochromanone] |  |  |  | NI (no impact (<10% inhibition at 60 μM)) | uncompetitive inhibition | 260 ± 30 nM | partial non competitive; also recorded: partial noncompetitive inhibition | 3070 ± 690 nM |  | NI (no impact (<10% inhibition at 60 μM)) |  | viability at 24 h, 60 µM [9]: < 10%; IC50 (CYP1B1 [1]; human): 1420 ± 140 nM; IC50 (CYP3A4; human, recombinant enzyme): 5070 ± 3540 nM; nature of inhibition of CYP1A2 activity (CYP1A2; Eadie-Hofstee analysis, reversible): noncompetitive inhibition; Ki (CYP1A2; apparent Ki, CEC dealkylation): 9160 ± 4680 nM; IC50 (CYP1A2; human, probe 7-ethoxy-3-cyanocoumarin (CEC)): 9750 ± 36.5 nM; IC50 cell viability CCD18 Co (CCD18 Co cells): NI (no impact (<10% inhibition at 60 μM)); viability at 24 h, 60 µM [10]: < 10%; viability at 24 h, 60 µM [11]: < 10%; IC50 cell viability HT29 (HT29 cells): NI (no impact (<10% inhibition at 60 μM)); viability at 24 h, 60 µM [12]: < 10%; IC50 (CYP2D6 [13]): 1030 ± 400 nM
